This note sets out measurements from paper PMC4448982, “LP-925219 maximizes urinary glucose excretion in mice by inhibiting both renal SGLT1 and SGLT2” (Pharmacology Research & Perspectives, 2015).

For assay [1], the target named is T1, renal SGLT1 and SGLT2 (Mus musculus, UniProt Q8C3K6).
T1 construct: from tissue; host or cells: kidney of living WT, SGLT1 KO, SGLT2 KO and DKO mice (C57BL/6J-129 SvEv hybrid)
T1 sequence (Q8C3K6 1-665): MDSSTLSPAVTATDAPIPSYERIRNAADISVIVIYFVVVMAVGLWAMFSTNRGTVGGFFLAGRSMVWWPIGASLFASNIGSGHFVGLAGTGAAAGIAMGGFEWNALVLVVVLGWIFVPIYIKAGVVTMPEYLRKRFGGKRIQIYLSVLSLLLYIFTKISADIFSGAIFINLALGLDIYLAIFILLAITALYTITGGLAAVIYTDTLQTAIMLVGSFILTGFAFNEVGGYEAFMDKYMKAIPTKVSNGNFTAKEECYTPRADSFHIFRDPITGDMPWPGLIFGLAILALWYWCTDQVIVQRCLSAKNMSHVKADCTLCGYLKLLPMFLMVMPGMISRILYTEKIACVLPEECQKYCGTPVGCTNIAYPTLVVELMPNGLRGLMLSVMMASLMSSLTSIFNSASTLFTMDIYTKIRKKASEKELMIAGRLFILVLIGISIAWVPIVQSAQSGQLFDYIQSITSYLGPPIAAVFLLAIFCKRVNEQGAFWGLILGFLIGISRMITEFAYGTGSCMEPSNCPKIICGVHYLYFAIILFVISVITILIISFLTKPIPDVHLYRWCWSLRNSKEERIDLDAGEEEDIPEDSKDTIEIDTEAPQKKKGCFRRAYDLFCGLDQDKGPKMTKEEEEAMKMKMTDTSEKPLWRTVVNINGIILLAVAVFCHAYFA
Nature of the assay: Metabolic cage study, 24-h urinary glucose excretion. In kind it is in vivo. The note with it: SGLT2 KO mice. Here is the method:
(§1) Mice were individually housed in Nalgene Metabolic Cages for Mice (product MTB-0311), and 24-h urine collections were made to determine 24-h UGE, as described previously (Powell et al. [2013a]). Some mice received a single dose of either LP-925219 or vehicle by oral gavage at 8 am immediately prior to initiating collection of 24-h urine samples; in addition, some mice received two doses of either vehicle or 60 mg/kg LP-925219 by oral gavage, with the first dose given at 8 am and the second dose given at 6 pm, nearly midway through the collection of the 24-h urine sample.
(§2) Figure 5 UGE values in mice treated with a single dose of LP-925219. After DKO, S2 KO, S1 KO, and WT littermate mice received, by a single oral gavage at 8 am, either vehicle (Veh) or LP-925219 at a dose of (A) 1 mg/kg; (B) 10 mg/kg; or (C) 60 mg/kg, the mice were placed in metabolic cages and their urine was collected over the next 24 h and analyzed for total glucose. N = 5–11 mice/group. UGE < DKO UGE: *P < 0.05, **P < 0.01, ***P < 0.001; LP-925219 UGE > Veh UGE for the same group, ^^^P < 0.001. UGE, urinary glucose excretion.
(§3) Figure 6 UGE values in mice treated with two doses of 60 mg/kg LP-925219. DKO, S2 KO, S1 KO, and WT littermate mice received, by oral gavage at 8 am and then again at 6 pm, either vehicle (Veh) or LP-925219 at a dose of 60 mg/kg. The mice were placed in metabolic cages after the first gavage and their urine was collected over the next 24 h and analyzed for total glucose. N = 6–11 mice/group. UGE < DKO UGE, ***P < 0.001; LP-925219 UGE > Veh UGE for the same group, ^^^P < 0.001. UGE, urinary glucose excretion.

Assay [2] deals with renal SGLT1 and SGLT2. Described as above. Type of assay: in vivo, mouse. The method, then:
as §1, §2, §3

In the next assay the target is T2, human SGLT1 (Homo sapiens, UniProt P13866).
T2 sequence (P13866 1-664): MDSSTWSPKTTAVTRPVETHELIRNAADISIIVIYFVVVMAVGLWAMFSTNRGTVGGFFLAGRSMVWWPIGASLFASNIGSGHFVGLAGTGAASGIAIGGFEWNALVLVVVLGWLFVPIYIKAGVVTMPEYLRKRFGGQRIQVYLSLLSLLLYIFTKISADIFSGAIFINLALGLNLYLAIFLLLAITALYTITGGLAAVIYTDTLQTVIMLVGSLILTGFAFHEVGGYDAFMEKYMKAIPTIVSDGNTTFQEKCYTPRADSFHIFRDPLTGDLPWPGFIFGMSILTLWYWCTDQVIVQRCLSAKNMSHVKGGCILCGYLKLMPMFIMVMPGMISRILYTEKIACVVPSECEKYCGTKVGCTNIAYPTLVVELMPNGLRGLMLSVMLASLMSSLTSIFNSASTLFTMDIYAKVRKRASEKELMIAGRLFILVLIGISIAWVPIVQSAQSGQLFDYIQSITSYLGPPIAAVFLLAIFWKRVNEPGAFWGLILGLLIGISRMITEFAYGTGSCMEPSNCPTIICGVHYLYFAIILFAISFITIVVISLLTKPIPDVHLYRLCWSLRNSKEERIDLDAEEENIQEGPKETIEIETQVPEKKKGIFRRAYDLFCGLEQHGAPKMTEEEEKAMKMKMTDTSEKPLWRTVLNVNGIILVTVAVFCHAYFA
In words: Compound washout study, cells expressing human SGLT1.

Text for human SGLT1: Cells expressing human SGLT2 were studied using the above protocol. […] Cells expressing human SGLT2 were studied using the above protocol.

The term IC50 denotes the concentration at which inhibition is half-maximal. In the case of `COc1ccc(Cc2cc([C@@H]3O[C@H](SC)[C@@H](O)[C@H](O)[C@H]3O)ccc2Cl)cc1` [LP-925219], the “24-h UGE” value is listed as 80 ± 18 % of maximal at renal SGLT1 and SGLT2 [1] (single oral dose 60 mg/kg, maximal = vehicle-treated DKO); “did not show a significant increase” at renal SGLT1 and SGLT2 [1] (single oral dose 1 or 10 mg/kg, vs vehicle); 89 ± 16 % of maximal at renal SGLT1 and SGLT2 [1] (two oral 60 mg/kg doses (8 am, 6 pm)); “not significantly increased” in the assay with renal SGLT1 and SGLT2 [2] (DKO mice, single oral dose 1, 10 or 60 mg/kg, vs vehicle); “not significantly increased” in the assay with renal SGLT1 and SGLT2 [2] (DKO mice, two oral 60 mg/kg doses (8 am, 6 pm), vs vehicle); “almost maximal” in the assay on renal SGLT1 and SGLT2 [2] (SGLT1 KO mice, single oral dose 1 mg/kg). Further, the “24-h UGE” value in the assay with renal SGLT1 and SGLT2 [2] (SGLT1 KO mice, single oral dose, all higher doses (10, 60 mg/kg)) was “maximal”; in the assay with renal SGLT1 and SGLT2 [2] (SGLT1 KO mice, two oral 60 mg/kg doses (8 am, 6 pm)), “maximally increased”; with renal SGLT1 and SGLT2 [2] (WT mice, single oral dose 1 mg/kg, vs vehicle), “did not show a significant response”; in the assay on renal SGLT1 and SGLT2 [2] (WT mice, single oral dose 60 mg/kg, maximal = vehicle-treated DKO) it was 68 ± 15 % of maximal; in the assay on renal SGLT1 and SGLT2 [2] (WT mice, two oral 60 mg/kg doses (8 am, 6 pm)), 90 ± 17 % of maximal. The IC50 is 13 nM against human SGLT1 (no wash protocol) and 1310 nM at human SGLT1 (washout protocol, 18-20 h recovery after 30 min treatment).
